From PubChem BioAssay (NCI)
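Where inhibition never reached the appropriate level, the endpoint shown equals the highest concentration tested. Otherwise, values were interpolated linearly from a five-concentration, 48-hour dose response in 96-well plates. Abbreviation: GI50, concentration required for 50% inhibition of growth. The concentration for full growth arrest is given as TGI.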

Experiments:
Experiment in all cases: NCI anticancer screen, dose series, 48 h
[1] = test system: T-47D breast
[2] = test system: HL-60(TB) leukemia
[3] = test system: CAKI-1 renal
[4] = test system: SR leukemia
[5] = test system: HOP-92 NSCLC
[6] = test system: MDA-MB-231 breast
[7] = test system: HT29 colon
[8] = test system: DU-145 prostate
[9] = test system: LOX IMVI melanoma
[10] = test system: SF-295 CNS

Row | SMILES | GI50 [1] [µM] | TGI [1] [µM] | GI50 [2] [µM] | TGI [2] [µM] | GI50 [3] [µM] | TGI [3] [µM] | GI50 [4] [µM] | TGI [4] [µM] | GI50 [5] [µM] | TGI [5] [µM] | GI50 [6] [µM] | TGI [6] [µM] | GI50 [7] [µM] | TGI [7] [µM] | GI50 [8] [µM] | TGI [8] [µM] | GI50 [9] [µM] | TGI [9] [µM] | GI50 [10] [µM] | TGI [10] [µM]
1 | Cc1cc(C)c(C#N)c(Sc2nc(C)c([N+](=O)[O-])c(C)c2C#N)n1 | 2.29 | 5.59 | 2.63 | 7.34 | 2.17 | 5.65 | 2.94 | > 100 | 2.68 | 7.88 | 4.7 | 51 | 3.71 | 10.8 | 2.95 | 11.1 | 1.82 | 3.44 | 14.2 | 59.4
2 | COC(=O)c1c(-c2cccs2)oc(-c2cccs2)c1C(=O)OC | 28.5 | > 100 | 79.9 | > 100 | 26.7 | 69.3 | > 100 | > 100 | 31.9 | > 100 | 34 | > 94.5 | 60.2 | > 100 | > 100 | > 100 | 31.9 | > 63.1 | 19.4 | 51.8
3 | CC(=O)OC12C=C(C)C(C(C)C1)C1C(=O)N(CCN3CCCCC3)C(=O)C12 (stereo not given) | > 50 | > 50 | > 50 | > 50 | > 50 | > 50 | > 50 | > 50 | > 50 | > 50 | > 50 | > 50 | > 50 | > 50 | > 50 | > 50 | > 50 | > 50 | > 50 | > 50
4 | C1CN(c2nnc(N3CCC3)nn2)C1 | – | > 100 | – | > 100 | – | > 100 | – | > 100 | – | > 100 | – | > 60.2 | – | > 56.2 | – | > 100 | – | 36.1 | – | 69.6
5 | COc1cc(C2C3=C(COC3=O)N(CCO)c3cc4c(cc32)OCCO4)cc(OC)c1OC (stereo not given) | 0.287 | > 50 | 0.155 | 1.28 | 2.11 | > 50 | 0.166 | – | 0.111 | > 50 | 0.185 | 2.72 | 0.166 | – | 0.345 | 0.943 | 0.286 | > 50 | 0.15 | 4.66
6 | COc1cccc2cc(N(C)c3nc(C)nc4c3CCC4)ccc12 | 5.38 | 41.8 | < 0.01 | 0.0103 | < 0.01 | 18.9 | < 0.01 | 11.3 | < 0.0169 | 1.48 | < 0.01 | 14.7 | < 0.01 | 0.608 | < 0.01 | 12 | < 0.01 | 13.8 | < 0.01 | 12.5
7 | CCN(CC)CCCC(C)Nc1cc(-c2cccc(OC(F)(F)F)c2)nc2ccc(N3CCCC3)cc12 (stereo not given) | 0.0542 | > 100 | 0.0528 | 2.06 | 0.0422 | 31.5 | 0.0365 | > 100 | 0.582 | 13.4 | 0.195 | 14.9 | 0.0394 | 11.2 | 0.0782 | 13.6 | 0.0638 | 14.6 | 0.0404 | 11.9
8 | O=C(NCC(F)(F)F)Nc1cccc(-c2cnc3cc(-c4ccc(F)cc4)ccn23)c1 | 2.69 | 62 | 0.58 | 24.7 | 1.05 | – | 0.314 | 11.1 | 2.15 | > 100 | 2.65 | > 49.4 | 0.314 | 1.23 | 3.91 | > 100 | 0.727 | 11.2 | 0.737 | 6.97
9 | COc1ccc(-c2nc(-c3nc4ccc(C)cc4[nH]3)cc3c2[nH]c2ccccc23)cc1 | 3.67 | 19.2 | 4.11 | 37.7 | 3.28 | > 100 | 2.68 | 27.8 | 2.17 | 8.11 | 6.88 | > 100 | 5.29 | > 100 | 5.02 | > 100 | 3.34 | 17.1 | – | –
10 | O=C1/C(=C/c2ccc(F)cc2)CN(C(=O)CCN2CCC(=NO)CC2)C/C1=C\c1ccc(F)cc1 | 2.56 | 9.55 | 2.26 | 7.95 | 1.57 | 3.92 | 0.197 | > 100 | 3.21 | 7.39 | 1.37 | 3.54 | 0.845 | 2.61 | 2.26 | 5.17 | 0.409 | 0.922 | 2.06 | 4.72
11 | COc1ccc(-c2cncn2-c2cc(OC)c(OC)c(OC)c2)cc1 | 3.12 | > 100 | 1.72 | 3.59 | 0.051 | 1.85 | 2.09 | 6.59 | 3.3 | > 61 | 0.465 | 25.7 | 0.153 | > 100 | 0.151 | 9.92 | 0.857 | > 80.9 | 0.0311 | > 14.8
12 | CSc1nc2nc3c(nc2c(=O)n1C)C(=O)c1ccccc1C3=O | 0.226 | 0.843 | 0.209 | 0.514 | 0.3 | 1 | 0.332 | > 100 | 0.476 | 2.59 | 0.256 | 0.974 | 0.253 | 0.637 | 0.216 | 0.623 | 0.128 | 0.315 | 0.157 | 0.315
13 | O=C(O)/C(Cc1cn[nH]n1)=N\O | – | > 100 | – | > 100 | – | > 100 | – | > 100 | – | > 100 | – | > 100 | – | > 100 | – | > 100 | – | > 100 | – | > 100
